Like-named read-outs stand apart in the source and are kept apart here.
Legend:
[1] = test system: genotype 2a J6 strain NS5A gene (M31 present); test: Replicon assay, NS5A chimeric 2a JFH-1 replicon with 2a J6 NS5A, transient (t) or stable (s), Huh-Lunet cells; format: cell-based, HCV
Protocol: (§1) Evaluation of cell-based anti-HCV activity: Antiviral potency (EC50) was determined using a Renilla luciferase (RLuc)-based HCV replicon reporter assay. […] To perform the assay for genotype 2a (with M31 present in NS5A) or 2b, NS5A chimeric genotype 2a JFH-1 replicons that encodes a RLuc-Neo reporter and either genotype 2a J6 strain NS5A gene or genotype 2b MD2b-1 strain NS5A gene (both with M31 present) respectively, were either transiently transfected (t) into Huh-Lunet cells or were established as stably replicating replicon cells (s) is provided. Either cells were dispensed into 384-well plates for EC50 assays. To perform the assay for genotype 3 and 4, NS5A chimeric genotype 1b Con1 replicons that encodes a Pi-RLuc reporter and either genotype 3a S52 strain NS5A gene or genotype 4a ED43 strain NS5A gene respectively, were transiently transfected (t) into Huh-Lunet cells, which were subsequently dispensed into 384-well plates. Compounds were dissolved in DMSO at a concentration of 10 mM and diluted in DMSO either manually or using an automated pipeting instrument. Serially 3-fold diluted compounds were either manually mixed with cell culture media and added to the seeded cells or directly added to the cells using an automated instrument. […] 72 hours later, cells were lysed and Renilla luciferase activity quantified as recommended by the manufacturer (Promega-Madison, Wis.). Non-linear regression was performed to calculate EC50 values.

[2] = test system: genotype 2b MD2b-1 strain NS5A gene (M31 present); test: microbe, parasite or virus in culture; format: cell-based, HCV
Protocol: as §1

[3] = test system: genotype 1b Con1 replicon; test: microbe, parasite or virus in culture; format: cell-based, HCV
Protocol: as §1

[4] = test system: genotype 2a JFH-1 replicon (L31 present in NS5A); test: microbe, parasite or virus in culture; format: cell-based, HCV
Protocol: as §1

[5] = IV and PO Single Dose Pharmacokinetic Studies in SD Rats; format: in vivo, male Sprague-Dawley (SD) rats; details: oral bioavailability, PO 2 mg/kg vs IV infusion 1 mg/kg
Protocol: IV and PO Single Dose Pharmacokinetic Studies in SD Rats: The pharmacokinetics of selected compounds was characterized in male Sprague-Dawley (SD) rats (250-300g). […] The intravenous (IV) dosing vehicle was 5% ethanol, 35% polyethylene glycol 400 (PEG 400) and 60% water pH 2.0. […] Serial blood samples (approximately 0.3 mL each) were collected from jugular vein or other suitable vein at specified time points. […] The blood samples were collected into Vacutainer™ tubes containing EDTA-K3 as the anti-coagulant and were centrifuged at approximately 4° C. to obtain plasma. The plasma samples were stored at −20° C. until analysis by LC/MS/MS. […] Standard curve and quality control samples were prepared in male rat plasma and processed in the same way as the test samples to generate quantitative data. […] Values below the lower limit of quantification (LLOQ) were assigned a value of zero if predose and treated as missing thereafter. Area under the curve (AUC) was calculated using the linear trapezoidal rule. The oral bioavailability (% F) was determined by comparison of the area under the curve (AUC) of the compound and/or a metabolite generated in plasma following oral administration to that generated following intravenous administration.

Q30R in genotype 1a NS5A = test: Antiviral potency against resistance mutant, 1a Pi-Rluc replicon in Huh-7-derived cured-51 cells; format: cell-based, HCV
Protocol: as §1
To determine the antiviral potency (EC50) against resistance mutants, resistance mutations, including M28T, Q30R, Q30H, L31M, and Y93C in genotype 1a NS5A and Y93H in genotype 1b NS5A, were introduced individually into either 1a Pi-Rluc or 1b Pi-Rluc replicons by site directed mutagenesis. Replicon RNA of each resistant mutant was transiently transfected into Huh-7-derived cured-51 cells and antiviral potency was determined on these transfected cells as described above.

[6] = test system: genotype 3a S52 strain NS5A gene; test: Replicon assay, NS5A chimeric 1b Con1 replicon with 3a NS5A, transiently transfected Huh-Lunet cells; format: cell-based, HCV
Protocol: as §1

[7] = test system: genotype 2a JFH-1 replicon (L31 present in NS5A); test: microbe, parasite or virus in culture; format: cell-based, HCV; details: Hepatitis C virus, read-out: 2a JFH
genotype 1a H77 replicon = test: microbe, parasite or virus in culture; format: cell-based, HCV; details: Hepatitis C virus
Protocol: as §1

[8] = test system: genotype 4a ED43 strain NS5A gene; test: Replicon assay, NS5A chimeric 1b Con1 replicon with 4a NS5A, transiently transfected Huh-Lunet cells; format: cell-based, HCV; details: Hepatitis C virus
Protocol: as §1, with “[…],” for “were transiently transfected (t) into Huh-Lunet cells,”

[9] = Hepatitis C virus, read-out: 2a J6
[10] = Hepatitis C virus, read-out: 2a J6 (t) (nM)
[11] = Hepatitis C virus, read-out: 2b
[12] = Hepatitis C virus, read-out: 2b (s) (nM)
[13] = Hepatitis C virus, read-out: 2b (t) (nM)
[14] = Hepatitis C virus, read-out: 1b (nM)
[15] = Hepatitis C virus, read-out: 2a JFH (nM)

Compound `COC[C@H]1C[C@@H](c2nc3ccc4cc5c(cc4c3[nH]2)OCc2cc(-c3cnc([C@@H]4CC[C@H](C)N4C(=O)[C@@H](NC(=O)OC)C(C)C)[nH]3)ccc2-5)N(C(=O)[C@@H](NC(=O)OC)[C@@H](C)OC)C1` [Example OM, Methyl {(2S)-1-[(2S,4S)-2-(5-{2-[(2S,5S)-1-{(2S,3R)-3-methoxy-2-[(methoxycarbonyl)amino]butanoyl}-4-(methoxymethyl)pyrrolidin-2-yl]-1,11-dihydroisochromeno[4′,3′:6,7]naphtho[1,2-d]imidazol-9-yl}-1H-imidazol-2-yl)-5-methylpyrrolidin-1-yl]-3-methyl-1-oxobutan-2-yl}carbamate] has an EC50 ([1]; genotype 2a J6, EC50 range class, transiently transfected cells (t), if unavailable stably replicating cells (s), read-out: 2a J6) of under 1 nM, an EC50 ([1]; transiently transfected cells (t), read-out: 2a J6 (t)) of 0.045 nM and an EC50 ([2]; genotype 2b, EC50 range class, transiently transfected cells (t), if unavailable stably replicating cells (s), read-out: 2b) of under 1 nM. For the same compound, the EC50 ([2]; stably replicating cells (s), read-out: 2b (s)) was 0.054 nM, the EC50 ([2]; transiently transfected cells (t), read-out: 2b (t)) was 0.053 nM and the EC50 ([3]; read-out: 1b) was 0.019 nM. The EC50 ([4]; genotype 2a JFH replicon, EC50 range class, read-out: 2a JFH) was under 1 nM, the EC50 ([4]; genotype 2a JFH replicon, read-out: 2a JFH) was 0.009 nM and the “Rat % F” value [5] was 12.2%. For the same compound, the EC50 (Q30R in genotype 1a NS5A; genotype 1a Q30R resistance mutant, EC50 range class, read-out: 1a Q30R) was under 1 nM, the EC50 (Q30R in genotype 1a NS5A; genotype 1a Q30R resistance mutant, read-out: 1a Q30R) was 0.035 nM and the EC50 ([6]; genotype 3a, EC50 range class, read-out: 3a) was under 1 nM. It also gave an EC50 ([6]; genotype 3a, read-out: 3a) of 0.035 nM.

`COC(=O)NC(C(=O)N1CCCC1c1nc2ccc3cc4c(cc3c2[nH]1)OCc1cc(-c2cnc(C3CCCN3C(=O)C(NC(=O)O)C(C)C)[nH]2)ccc1-4)c1ccccc1` (stereo not drawn) [Example LQ, [1-(2-{5-[2-(1-{[(Methoxycarbonyl)amino](phenyl)acetyl}pyrrolidin-2-yl)-1,11-dihydroisochromeno[4′,3′:6,7]naphtho[1,2-d]imidazol-9-yl]-1H-imidazol-2-yl}pyrrolidin-1-yl)-3-methyl-1-oxobutan-2-yl]carbamic acid] showed an EC50 [1, 9] of under 1 nM, an EC50 ([1]; Hepatitis C virus, read-out: 2a J6 (s) (nM)) of 0.543 nM and an EC50 [1, 10] of 0.134 nM. The EC50 [7] was under 1 nM, the EC50 (genotype 1a H77 replicon; read-out: 1a) was under 1 nM and the EC50 (genotype 1a H77 replicon; read-out: 1a (nM)) was 0.022 nM. It also gave an EC50 [2, 11] of under 1 nM, an EC50 [2, 12] of 0.035 nM and an EC50 [2, 13] of 0.012 nM. The EC50 [3, 14] was 0.02 nM, the EC50 [4, 15] was 0.004 nM and the EC50 (Q30R in genotype 1a NS5A; Hepatitis C virus, read-out: 1a Q30R) was under 1 nM. The EC50 (Q30R in genotype 1a NS5A; Hepatitis C virus, read-out: 1a Q30R (nM)) was 0.135 nM, the EC50 ([6]; Hepatitis C virus, read-out: 3a) was under 1 nM and the EC50 ([6]; Hepatitis C virus, read-out: 3a (nM)) was 0.005 nM. The EC50 ([8]; read-out: 4a) was under 1 nM, the EC50 ([8]; read-out: 4a (s) (nM)) was 0.02 nM and the EC50 ([8]; read-out: 4a (t) (nM)) was 0.008 nM.

In the case of `COC[C@H]1C[C@@H](c2nc3ccc4cc5c(cc4c3[nH]2)OCc2cc(-c3cnc([C@@H]4C[C@H]6C[C@H]6N4C(=O)[C@@H](NC(=O)OC)[C@@H](C)OC)[nH]3)ccc2-5)N(C(=O)[C@H](NC(=O)OC)c2ccccc2)C1` [Example MX], the EC50 [1, 9] is reported as under 1 nM, the EC50 [1, 10] is reported as 0.035 nM and the EC50 [7] is reported as under 1 nM. It also gave an EC50 (genotype 1a H77 replicon; read-out: 1a) of under 1 nM, an EC50 (genotype 1a H77 replicon; read-out: 1a (nM)) of 0.036 nM and an EC50 [2, 11] of under 1 nM. For the same compound, the EC50 [2, 12] was 0.139 nM, the EC50 [2, 13] was 0.07 nM and the EC50 [3, 14] was 0.076 nM. The EC50 [4, 15] was 0.024 nM, the EC50 ([8]; read-out: 4a) was under 1 nM and the EC50 ([8]; read-out: 4a (s) (nM)) was 0.033 nM.

Work on `CCC(C)[C@H](NC(=O)OC)C(=O)N1C[C@@H](C)CC1c1ncc(-c2ccc3c(c2)COc2cc4c(ccc5nc([C@@H]6C[C@H](COC)CN6C(=O)[C@@H](NC(=O)OC)C(C)OC)[nH]c54)cc2-3)[nH]1` (stereo in doubt) [Example QD, Methyl {(2S,3R)-1-[(2S,4S)-2-(5-{2-[(2S,4S)-1-[N-(methoxycarbonyl)-O-methyl-L-allothreonyl]-4-(methoxymethyl)pyrrolidin-2-yl]-1,11-dihydroisochromeno[4′,3′:6,7]naphtho[1,2-d]imidazol-9-yl}-1H-imidazol-2-yl)-4-methylpyrrolidin-1-yl]-3-methyl-1-oxopentan-2-yl}carbamate] yielded an EC50 [1, 9] of under 1 nM, an EC50 [7] of under 1 nM and an EC50 (genotype 1a H77 replicon; read-out: 1a) of under 1 nM. The EC50 [2, 11] was under 1 nM and the EC50 [3, 14] was 0.03 nM.

From patent publication US9221833B2, “Antiviral compounds” (GILEAD PHARMASSET LLC, priority 2011, dated 2015)
